Results reported in patent US20220177456A1, “COMPOUNDS, COMPOSITIONS AND METHODS” (Denali Therapeutics Inc., priority 2019, published 2022).

Test system: ISR pathway (ATF4 translation), H4 ATF4-NLuc (clone 17) cell line
Assay: ATF4 Nano Luciferase reporter integrated stress response (ISR) assay in H4 ATF4-NLuc cells
Assay type: cell-based
Details: human H4 neuroglioma ATF4-NLuc cells; compound 30 minutes, then 50 μm sodium arsenite for 6 hours; luminescence readout
Text: Cellular stress leads to activation of the integrated stress response pathway through one of four eukaryotic initiation factor 2α kinases and halts global translation, while allowing for the translation of select transcripts like ATF4 (activating transcription factor 4) that are important for the response to cellular stress. During normal conditions, small open reading frames (ORFs) in the 5′ UTR of ATF4 occupy the ribosome and prevent translation of the coding sequence of ATF4. During stress conditions however, the ribosome scans past these upstream ORFs and preferentially begins translation at the coding sequence of ATF4. In this way, the translation, and thus protein level of ATF4 is a readout of ISR pathway activation. Thus, a fusion of the uORFs and the beginning of the coding sequence of ATF to a common cellular reporter like nano-luciferase allows for a sensitive and high-throughput readout of ISR pathway activity.
Compounds as provided herein were tested in the following assay. The ATF4 Nano Luciferase reporter was constructed by fusing the human full length 5′ untranslated region (5′-UTR) and a small portion of the coding sequence of the ATF4 gene upstream of the Nano Luciferase (NLuc) coding sequence lacking it's start codon. Specifically, nucleotides +1 through +364 (relative to the transcriptional start site) of ATF4 transcript variant 2 (NCBI NM_182810.2) flanked 5′ by EcoRI and 3′ by BamHI restriction enzyme sites were synthesized and cloned into the EcoRI/BamHI cloning sites of pLVX-EF1a-IRES-Puro lentivirus vector (Clontech). Lentiviral particles were produced with Lenti-X single shots (VSV-G, Clontech) according to the manufacturer's instructions and used to transduce a human H4 neuroglioma cell line (ATCC HT1B-148). H4 cells were selected with 1.25 μg/mL Puromycin, and clonal cell lines generated by limiting dilution. We utilized this cell line to generate an integrated stress response (ISR) assay to evaluate the activity of ISR pathway inhibitors via luminescence readout. The H4 ATF4-NLuc (clone 17) cell line is plated at a density of […] cells in 96-well or 384-well respectively in DMEM +10% fetal bovine serum. 24-hours later test compounds diluted in dimethyl sulfoxide (DMSO) are added for 30 minutes at 37° C., followed by ISR pathway activation with 50 μm sodium arsenite aqueous solution for 6 additional hours. Nano Glo luciferase reagent (N1150, Promega) is added according to manufacturer instructions and the luminescence signal (corresponding to the level of ATF4 translation and thus ISR pathway activation) is read with a standard plate reader with luminescence detection capabilities.
In the tables below, activity of the tested compounds is provided, and in Table 3 as follows: +++=0.003 μM<IC50<1 μM; ++=IC50 1-10 μM; +=IC50>10 μM.

Structure (SMILES)	IC50 [µM]
O=C(NCC1CC(OC(F)(F)F)C1)[C@@H]1CC[C@@H](n2cnc(-c3ccc(Cl)c(F)c3)c2)CO1 (stereo partly drawn) [Example 23, (2S,5R)-5-[4-(4-chloro-3-fluoro-phenyl)imidazol-1-yl]-N-[[3-(trifluoromethoxy)cyclobutyl]methyl] tetrahydropyran-2-carboxamide]	0.003 to 1
C[C@@H](NC(=O)[C@@H]1CC[C@@H](NC(=O)COc2ccc(Cl)cc2)CO1)c1ccc(Cl)cc1 [Example 17, (2S,5R)-5-[[2-(4-chlorophenoxy)acetyl]amino]-N-[(1R)-1-(4-chlorophenyl)ethyl] tetrahydropyran-2-carboxamide]	0.003 to 1
C[C@H](NC(=O)[C@@H]1CC[C@@H](NC(=O)COc2ccc(Cl)cc2)CO1)c1ccc(Cl)cc1 [Example 18, (2S,5R)-5-[[2-(4-chlorophenoxy)acetyl]amino]-N-[(1S)-1-(4-chlorophenyl)ethyl] tetrahydropyran-2-carboxamide]	0.003 to 1
O=C(N[C@H]1C[C@@H](OC(F)(F)F)C1)[C@@H]1CC[C@@H](n2cnc(-c3ccc(Cl)c(F)c3)c2)CO1 [Example 25, (2S,5R)-5-[4-(4-chloro-3-fluoro-phenyl)imidazol-1-yl]-N-[3-cis-(trifluoromethoxy)cyclobutyl] tetrahydropyran-2-carboxamide]	0.003 to 1
O=C(COc1ccc(C(F)(F)F)cc1)N[C@@H]1CC[C@@H](C(=O)N2CCc3cc(C(F)(F)F)ccc3C2)OC1 [Example 5, N-[(3R,6S)-6-[6-(trifluoromethyl)-3,4-dihydro-1H-isoquinoline-2-carbonyl]tetrahydropyran-3-yl]-2-[4-(trifluoromethyl)phenoxy] acetamide]	0.003 to 1
O=C(COc1ccc(Cl)cc1)N[C@@H]1CC[C@@H](C(=O)N2CCc3cc(Cl)ccc3C2)OC1 [Example 22, 2-(4-chlorophenoxy)-N-[(3R,6S)-6-(6-chloro-3,4-dihydro-1H-isoquinoline-2-carbonyl)tetrahydropyran-3-yl]acetamide]	0.003 to 1
CN(Cc1ccc(Cl)cc1)C(=O)[C@@H]1CC[C@@H](NC(=O)COc2ccc(Cl)cc2)CO1 [Example 19, (2S,5R)-5-[[2-(4-chlorophenoxy)acetyl]amino]-N-[(4-chlorophenyl)methyl]-N-methyl-tetrahydropyran-2-carboxamide]	0.003 to 1
O=C(COc1ccc(Cl)cc1)N[C@@H]1CC[C@@H](C(=O)NCc2cccc(C(F)(F)F)c2)OC1 [Example 14, (2S,5R)-5-[[2-(4-chlorophenoxy)acetyl]amino]-N-[[3-(trifluoromethyl)phenyl]methyl] tetrahydropyran-2-carboxamide]	0.003 to 1
CC1c2ccc(Cl)cc2CCN1C(=O)[C@@H]1CC[C@@H](NC(=O)COc2ccc(Cl)cc2)CO1 (stereo partly drawn) [Example 6, 2-(4-chlorophenoxy)-N-[(3R,6S)-6-(6-chloro-1-methyl-3,4-dihydro-1H-isoquinoline-2-carbonyl)tetrahydropyran-3-yl]acetamide]	0.003 to 1
